# In publication PMC5114558, “Reader domain specificity and lysine demethylase-4 family function” (Nature Communications, 2016):
# Changes are numbered by the printed parent chain. Read-outs that look alike come from different tables or passages of the source. Non-standard residues stand in square brackets, D forms with d. Residues, ends and D or L forms follow the SMILES beside them. *: point of attachment. 5FAM = O=C1OC2(c3ccc(O)cc3Oc3cc(O)ccc32)c2ccc(C(=O)*)cc21; Lys(Me3) = C[N+](C)(C)CCCC[C@H](N)C(=O)O
# What was measured:
# [1] = molecular target: T1, KDM4A DTD (human KDM4A double tudor domain, 895–1011aa) (Homo sapiens, UniProt O75164); assay: fluorescence polarization (FP) binding, KDM4A-DTD wild-type
# T1 construct: DNA encoding DTDs (KDM4A 895–1011aa, KDM4B 917–1031aa and KDM4C 877–991aa); (His)6-HaloTag (pFN29) or (His)6 (pET28b); made in house; host or cells: Escherichia coli BL21 (DE3)
# T1 sequence (O75164 895-1011): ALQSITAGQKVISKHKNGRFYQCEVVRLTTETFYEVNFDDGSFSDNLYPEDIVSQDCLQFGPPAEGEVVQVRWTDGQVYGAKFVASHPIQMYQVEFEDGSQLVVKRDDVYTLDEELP
# Excerpt: (§1) KDM4 protein sequences used in this study correspond to Uniprot ID: O75164 (human KDM4A, isoform 1), O94953 (human KDM4B, isoform1) and Q9H3R0 (human KDM4C, isoform1). Plasmid encoding KDM4A DTD was kindly provided by R-M Xu (Chinese Academy of Sciences). Complementary DNA encoding human KDM4B-DTD was synthesized (Integrated DNA Technologies). Plasmid containing cDNA of full-length KDM4C (clone ID: HsCD00341594) was obtained from Harvard Plasmid Repository. DNA encoding DTDs (KDM4A 895–1011aa, KDM4B 917–1031aa and KDM4C 877–991aa) were cloned into pFN29 (Promega) with N-terminal (His)6-HaloTag or pET28b with N-terminal (His)6 Tag using In-Fusion HD cloning kit (Clontech). Plasmids encoding Xenopus laevis core histones were a generous gift of K. Luger (University of Colorado-Boulder). Site-directed mutagenesis was performed with Q5 Site-Directed Mutagenesis Kit (New England Biolabs).
# (§2) Peptide sequences are given in Supplementary Table 1. […] A no-protein control with only peptide probe was included. Polarization at each concentration was measured as triplicates in 384-well polystyrene black microplates (Thermo Fisher Scientific 262260) by Biotek Synergy H4 multimode plate reader (light source: xenon flash, offset from top: 7 mm, sensitivity: 60%, excitation: 485/20 nm, emission: 528/20 nm, both parallel and perpendicular, normal read speed). Fraction bound (Fb) at each concentration was calculated based on the corresponding polarization values (P): Fbc=(Pc−Pmin)/(Pmax−Pmin), where Pmin is the polarization value of no-protein control and Pmax is the polarization value of the saturation value for that peptide. Dissociation constants (Kd) were derived by KaleidaGraph, Synergy Software (version 4.1.3) using the following equation: Fb=[protein]/([protein]+Kd).
# [2] = molecular target: T2, KDM4B DTD (human KDM4B double tudor domain, 917–1031aa) (Homo sapiens, UniProt O94953); assay: fluorescence polarization (FP) binding, KDM4B-DTD wild-type; settings: matrix Fig. 1d, pH 7.4, read-out: binding affinity (Kd), KDM4B DTD
# T2 construct: DNA encoding DTDs (KDM4A 895–1011aa, KDM4B 917–1031aa and KDM4C 877–991aa); (His)6-HaloTag (pFN29) or (His)6 (pET28b); made in house; host or cells: Escherichia coli BL21 (DE3)
# T2 sequence (O94953 917-1031): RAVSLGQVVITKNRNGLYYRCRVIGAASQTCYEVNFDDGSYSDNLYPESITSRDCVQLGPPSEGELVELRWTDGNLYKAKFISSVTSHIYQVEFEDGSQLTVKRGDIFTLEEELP
# Excerpt: as §1, §2
# [3] = molecular target: T3, KDM4C DTD (human KDM4C double tudor domain, 877–991aa) (Homo sapiens, UniProt Q9H3R0); assay: fluorescence polarization (FP) binding, KDM4C-DTD wild-type; settings: matrix Fig. 1d, pH 7.4, read-out: binding affinity (Kd), KDM4C DTD
# T3 construct: DNA encoding DTDs (KDM4A 895–1011aa, KDM4B 917–1031aa and KDM4C 877–991aa); (His)6-HaloTag (pFN29) or (His)6 (pET28b); made in house; host or cells: Escherichia coli BL21 (DE3)
# T3 sequence (Q9H3R0 877-991): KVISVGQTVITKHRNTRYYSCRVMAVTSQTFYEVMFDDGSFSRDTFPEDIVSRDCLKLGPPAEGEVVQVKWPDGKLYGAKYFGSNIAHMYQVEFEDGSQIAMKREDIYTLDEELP
# Excerpt: as §1, with “Plasmids encoding Xenopus laevis core histones were a generous gift of K. Luger (University of Colorado-Boulder). Site-directed mutagenesis was performed with Q5 Site-Directed Mutagenesis Kit (New England Biolabs).” left out
# (§3) Peptide sequences are given in Supplementary Table 1. […] Polarization at each concentration was measured as triplicates in 384-well polystyrene black microplates (Thermo Fisher Scientific 262260) by Biotek Synergy H4 multimode plate reader (light source: xenon flash, offset from top: 7 mm, sensitivity: 60%, excitation: 485/20 nm, emission: 528/20 nm, both parallel and perpendicular, normal read speed). Fraction bound (Fb) at each concentration was calculated based on the corresponding polarization values (P): Fbc=(Pc−Pmin)/(Pmax−Pmin), where Pmin is the polarization value of no-protein control and Pmax is the polarization value of the saturation value for that peptide. […]
# [4] = molecular target: T4, KDM4A-DTD triple mutant N931D/D939R/D945R (DRR) (Homo sapiens, UniProt O75164, D939R/D945R/N931D); assay: FP binding, KDM4A-DTD DRR mutant; settings: matrix Fig. 3c, values given in mM, pH 7.4, read-out: binding affinity (Kd), DRR mutant
# T4 construct: DNA encoding DTDs (KDM4A 895–1011aa, KDM4B 917–1031aa and KDM4C 877–991aa); (His)6-HaloTag (pFN29) or (His)6 (pET28b); made in house; host or cells: Escherichia coli BL21 (DE3)
# T4 sequence (O75164 895-1011 N931D/D939R/D945R): T1 sequence (O75164 895-1011) with N37D, D45R, D51R
# Excerpt: as §1, with “Plasmids encoding Xenopus laevis core histones were a generous gift of K. Luger (University of Colorado-Boulder). Site-directed mutagenesis was performed with Q5 Site-Directed Mutagenesis Kit (New England Biolabs).” left out
# as §3
# KDM4B-DTD = assay: biotinylated histone peptide pull-down, KDM4B-DTD; format: binding, human; settings: compared with KDM4A and KDM4C DTDs
# [5] = system: KDM4B full-length protein; assay: MS-based demethylation assay, full-length KDM4B; format: biochemical, human; settings: 0.2 μM enzyme, 5–10 μM peptide, pH 7.5, 25 °C, MS read-out; single peptide substrates; Fig. 6a,b
# Procedure: In a typical demethylase reaction, the assay mixture containing 50 mM Tris pH 7.5, 50 mM NaCl, 50 μM (NH4)2Fe(SO4)2, 0.5 mM ascorbic acid, 1 mM α-ketoglutarate and 0.2 μM full-length KDM4A–C (Active Motif) was mixed with 5–10 μM of trimethylated histone peptides (detailed sequence information in Supplementary Table 1). Each peptide concentration was quantified by measuring Abs280nm for peptides containing either tryptophan or tyrosine residue. After incubation of assay mixture at 25 °C for 10, 30 and 60 min time point, 10 μl of aliquot was transferred to a clean tube containing 5 μl of 5% formic acid to quench the reaction. Each quenched sample was treated with standard StageTip protocol using C18 extraction disk (Model 2215, Empore, 3 M) to remove excess salts and detergents in the reaction mixture. Each eluate from StageTip containing peptides was dried at a reduced pressure (vacuum centrifuge) and was re-suspended with 10 μl of 5% acetonitrile solution (0.1% formic acid). The 1 μl of the sample was injected at 0.7 μl min^−1 flow rate onto a Dionex Ultimate 3000 Nano LC system equipped with Atlantis dC18 NanoEase reverse-phase column (3 μm, 100 μm × 150 mm, Waters) and coupled to a hybrid quadrupole-orbitrap MS (Q-Exactive, Thermo Scientific). The peptide was eluted at 4–15 min retention time with a linear gradient of 2–35% acetonitrile (0.1% formic acid). All the solvents used for liquid chromatography MS were HPLC grade (Fisher). For each analysis, MS1 scan range of 300–1,100 m/z was used and data-dependent MS/MS was obtained to identify the site of demethylation. Each peptide peak and its area integration was performed on the XCalibur Qual Browser.
# H3K23me3 antibody = H3K23me3 antibody profiling on histone peptide microarray; settings: scale from zero (no binding) to one (highest binding), Supplementary Fig. 5b-c
# Procedure: Peptide arrays were handled with care and protected from light. All solutions were filtered before putting on the array. Assays were performed with a modified two-chamber simplex gasket (Intuitive Bioscience). After tightening the gasket onto the slide surface, the peptide array was blocked with blocking solution (1 × PBS, 0.05% Tween-20 pH 7.4, 1% BSA) at 4 °C overnight, to reduce nonspecific binding. (1) Reader binding: 10–50 nM purified recombinant HT-KDM4 DTDs were first reacted with excessive HaloTag ligand-biotin (Promega) in blocking solution on ice for 15 min and incubated on peptide array under mild rocking at 4 °C, 1 h. The slide was washed with PBS with 0.05% Tween (PBST) three times and incubated with 1:2,000 streptavidin-conjugated Alexa-Fluor647 (Invitrogen) in blocking solution at room temperature for 1 h. (2) Antibody binding: after blocking, 1:2,500–1:100 dilution H3K23me3 antibody in blocking solution were incubated with peptide microarray under mild rocking at 4 °C, 1 h. The slide was washed with PBST three times and incubated with 1:1,000 anti-rabbit IgG Alexa 647 (Cell Signaling) in blocking solution at room temperature for 1 h. […] Signal intensities were quantified by GenePix Pro 6.1 software (Molecular Devices). […] For each peptide species, an average was calculated from three replicate spots. […]
# [6] = matrix Fig. 1d and Fig. 3c, pH 7.4, read-out: binding affinity (Kd), KDM4A DTD wild-type
# [7] = Fig. 2e,g,i,j and Fig. 4g,i, pH 7.4, ± s.d. from three experimental replicates, read-out: binding affinity, KDM4A-DTD wild-type (WT)
molecule,measurement,setting,value
CC(C)C[C@H](NC(=O)[C@H](CCC(N)=O)NC(=O)[C@H](CCCCN)NC(=O)[C@H](CCCNC(=N)N)NC(=O)[C@@H]1CCCN1C(=O)[C@H](C)NC(=O)[C@H](CCCC[N+](C)(C)C)NC(=O)CNC(=O)CNC(=O)[C@@H](NC(=O)[C@H](CO)NC(=O)[C@H](CCCCN)NC(=O)[C@H](CCCNC(=N)N)NC(=O)[C@H](C)NC(=O)c1ccc2c(c1)C(=O)OC21c2ccc(O)cc2Oc2cc(O)ccc21)[C@@H](C)O)C(=O)N[C@@H](C)C(=O)N[C@H](C(=O)N[C@@H](CCCCN)C(=O)O)[C@@H](C)O [H3K14me3] (5FAM-ARKSTGG[Lys(Me3)]APRKQLATK-OH),Kd,[1]; [6],109 µM
CNCCCC[C@H](NC(=O)[C@@H](NC(=O)[C@H](C)NC(=O)[C@H](CC(C)C)NC(=O)[C@H](CCC(N)=O)NC(=O)[C@H](CCCCN)NC(=O)[C@H](CCCNC(=N)N)NC(=O)c1ccc2c(c1)C(=O)OC21c2ccc(O)cc2Oc2cc(O)ccc21)[C@@H](C)O)C(=O)N[C@@H](C)C(=O)N[C@@H](C)C(=O)N[C@@H](CCCNC(=N)N)C(=O)N[C@@H](CCCCN)C(=O)N[C@@H](CO)C(=O)N[C@@H](C)C(=O)N1CCC[C@H]1C(=O)N[C@@H](C)C(=O)N[C@H](C(=O)O)[C@@H](C)O [H3K23me1],Kd,[1]; [7],98.6 ± 5.4 µM
CC(C)C[C@H](NC(=O)[C@H](CCC(N)=O)NC(=O)[C@H](CCCCN)NC(=O)[C@H](CCCNC(=N)N)NC(=O)c1ccc2c(c1)C(=O)OC21c2ccc(O)cc2Oc2cc(O)ccc21)C(=O)N[C@@H](C)C(=O)N[C@H](C(=O)N[C@@H](CCCCN(C)C)C(=O)N[C@@H](C)C(=O)N[C@@H](C)C(=O)N[C@@H](CCCNC(=N)N)C(=O)N[C@@H](CCCCN)C(=O)N[C@@H](CO)C(=O)N[C@@H](C)C(=O)N1CCC[C@H]1C(=O)N[C@@H](C)C(=O)N[C@H](C(=O)O)[C@@H](C)O)[C@@H](C)O [H3K23me2],Kd,"[1]; pH 7.4, read-out: Kd, KDM4A-DTD wild-type",9.06 µM
CC(C)C[C@H](NC(=O)[C@H](CCC(N)=O)NC(=O)[C@H](CCCCN)NC(=O)[C@H](CCCNC(=N)N)NC(=O)c1ccc2c(c1)C(=O)OC21c2ccc(O)cc2Oc2cc(O)ccc21)C(=O)N[C@@H](C)C(=O)N[C@H](C(=O)N[C@@H](CCCC[N+](C)(C)C)C(=O)N[C@@H](C)C(=O)N[C@@H](C)C(=O)N[C@@H](C)C(=O)N[C@@H](CCCCN)C(=O)N[C@@H](CO)C(=O)N[C@@H](C)C(=O)N1CCC[C@H]1C(=O)N[C@@H](C)C(=O)N[C@H](C(=O)O)[C@@H](C)O)[C@@H](C)O [H3K23me3R26A] (5FAM-RKQLAT[Lys(Me3)]AAAKSAPAT-OH),Kd,[1]; [7],32.3 ± 1.8 µM
CC(C)C[C@H](NC(=O)[C@H](CCC(N)=O)NC(=O)[C@H](CCCCN)NC(=O)[C@H](CCCNC(=N)N)NC(=O)c1ccc2c(c1)C(=O)OC21c2ccc(O)cc2Oc2cc(O)ccc21)C(=O)N[C@@H](C)C(=O)N[C@H](C(=O)N[C@@H](CCCCN)C(=O)N[C@@H](C)C(=O)N[C@@H](C)C(=O)N[C@@H](CCCNC(=N)N)C(=O)N[C@@H](CCCC[N+](C)(C)C)C(=O)N[C@@H](CO)C(=O)N[C@@H](C)C(=O)N1CCC[C@H]1C(=O)N[C@@H](C)C(=O)N[C@H](C(=O)O)[C@@H](C)O)[C@@H](C)O [H3K27me3],Kd,[1]; [6],122 µM
same,Kd,[2],140 µM
same,Kd,[3],103 µM
same,Kd,[4],0.57 mM
CC(C)C[C@H](NC(=O)[C@H](CCC(N)=O)NC(=O)[C@H](CCCCN)NC(=O)[C@H](CCCNC(=N)N)NC(=O)c1ccc2c(c1)C(=O)OC21c2ccc(O)cc2Oc2cc(O)ccc21)C(=O)N[C@@H](C)C(=O)N[C@H](C(=O)N[C@@H](CCCC[N+](C)(C)C)C(=O)N[C@@H](C)C(=O)N[C@@H](C)C(=O)N[C@@H](CCCNC(=N)N)C(=O)N[C@@H](CCCCN)C(=O)N[C@@H](CO)C(=O)N[C@@H](C)C(=O)N1CCC[C@H]1C(=O)N[C@@H](C)C(=O)N[C@H](C(=O)O)[C@@H](C)O)[C@@H](C)OP(=O)(O)O [H3T22phK23me3],Kd,[1]; [7],83.7 ± 4.1 µM
"ARTK(Me3)QTARKSTE(PEGbiotin)W [H3K4me3 (biotinylated), H3K4me3 peptide for pull-down, PEGbiotin, in-house]",pull-down binding of KDM4B-DTD,KDM4B-DTD,Decreased
"H3K36me3: demethylation assay peptide, Tufts University Core Facility",demethylation by full-length KDM4B,[5],consistent H3K36me3 demethylation
same,relative signal intensity with H3K23me3 antibody,H3K23me3 antibody,less than 0.1
"RKQLATK(Me3)AARK(Me3)SAPATGGW [H3K23me3K27me3, demethylation assay peptide, Peptide 2.0]",demethylation by full-length KDM4B,[5],lack of measurable demethylation
"RKQLATKAARK(Me3)SAPATGGW [H3K27me3 peptide, demethylation assay peptide, Peptide 2.0]",demethylation by full-length KDM4B,[5],did not detect significant demethylation
